Positions of bridges follow the written chain, without caps; N, C: chain ends. Non-standard residues stand in square brackets, D forms with d. Residues, ends and D or L forms follow the SMILES beside them.

The source of these data is patent US20240336657A1, “G-ALPHA-S PEPTIDE INHIBITORS AND USES THEREOF” (The Regents of the University of California, priority 2021, published 2024).

Experiment [1] deals with biotinylated Gαs WT and His-tagged Gβγ(C68S). As to the kind of experiment: FRET based Gα/Gβγ interaction assay. The note with it: Gαs/Gβγ versus Gαi/Gβγ. It is filed as binding, human. As for the experimental part:
When we compared our GD20-bound Gαs structure with another GDP-bound Gαs structure in complex with Gβγ (FIG. 20D) (Liu et al., 2019), we noticed that GD20 induces a significant conformational shift of the Gβγ binding surface, and GD20 occupies the Gβγ binding surface in a competitive manner (FIGS. 20E-20F). […] Finally, 2× stocks of cyclic peptides were added with the protein mixtures. After incubation at room temperature for 2 hour at room temperature. The plate was read on a TECAN Spark 20 M plate reader using the TR-FRET mode with the following parameters: Lag time: […], Integration time: […], Read A: Ex 320(25) nm (filter), Em 610(20) nm (filter), Gain 130, Read B: Ex 320(25) nm (filter), Em 665(8) nm (filter), Gain 165. FRET Signal was calculated as the ratio of [Read B]/[Read A].

The target in a further experiment is T1, Gαs/Gβγ (Homo sapiens, UniProt P63092).
T1 construct: expressed in transfected cells; host or cells: HEK293 cells
The experiment in a line: BRET2 based Gα Gβγ interaction assay in HEK293 cells (β2AR, isoproterenol). The class given is cell-based. The note with it: pretreated 25 μM, 16 hours, 10 nM isoproterenol. The text has this: (§1) We next tested GD20-F10L in HEK 293 cells overexpressing both β2AR and Gαs/Gβγ. Rluc8 was inserted within a flexible loop region between the αB-αC helices of Gαs (FIG. 23J) and GFP2 was inserted at the N-terminus of Gγ2 to capture Gαβγ heterotrimer interaction. A decrease in the bioluminescence resonance energy transfer (BRET2) signal between labeled G protein subunits can detect Gαβγ dissociation (FIG. 21C) in live cells (Olsen et al., 2020). We examined Gαβγ trimer dissociation elicited by the GPCR agonist at various concentrations of cyclic peptides by monitoring the net BRET2 signal. In cells that were transiently transfected with a Gαs-coupled β2-adrenergic receptor (β2AR), GαsShort_Rluc8, […], and Gγ-GFP2, ISO application stimulated a basal net BRET response. […] This effect was GD20-F10L dose dependent (FIGS. 21D-21E). […] To assess the specificity of GD20-F10L at the G protein level, we tested it against the Gαi/Gβγ interaction. […]
(§2) 8 hours after plating in 96-well assay plates, media was replaced with 100 μL of cyclic peptide dilutions in DMEM with 1% dialyzed FBS. […] Plates were then read in a TECAN Spark 20 M plate reader with 395 nm (RLuc8-coelenterazine 400a) and 510 nm (GFP2) emission filters, at integration times of 1 s per well. Plates were read serially six times, and measurements from the fourth read were used in all analyses. […]

Another experiment deals with T2, GDP-bound Gαs (Homo sapiens, UniProt P63092).
T2 construct: hexahistidine (N, cleaved yes); made in house; host or cells: Escherichia coli BL21(DE3)
As to the kind of experiment: Bio-layer interferometry (BLI) binding kinetics. How it is done: BLI experiments were performed using an OctetRED384 instrument from ForteBio. All experiments were performed at 25° C. using BLI buffer (10 mM HEPES pH 7.4, 150 mM NaCl, 1 mM MgCl2, 0.05% Tween-20, 0.1% DMSO, 0.2 mM GppNHp or GDP). Cyclic peptides were diluted to a series of concentrations in BLI buffer plus 10 μM Biotin. Assays were conducted in Greiner 384well, black, flat bottom polypropylene plates containing the protein solutions, BLI buffer plus 10 μM Biotin for dissociation, and serial dilutions of cyclic peptides to be tested.
Biotinylated proteins were immobilized on Streptavidin biosensors by dipping sensors into plate wells containing protein solutions at a concentration of 100-150 nM. Protein loading is around 2-3 nm. Sensors loaded with proteins were moved and dipped into wells with BLI buffer plus 10 μM Biotin to block unlabeled Streptavidin. Association-dissociation cycles of compounds were started by moving and dipping sensors to cyclic peptides dilutions and BLI buffer plus 10 μM Biotin wells alternatively. Association and dissociation times were carefully determined to ensure full association and dissociation.
Raw kinetic data collected were processed with the Data Analysis software provided by the manufacturer using single reference subtraction in which buffer-only reference was subtracted (For GN13 analysis). Because GD20 analogs have a low level of background binding, we used a double reference subtraction (buffer-only reference and non-protein-loading reference) method to calculate their kinetics values. The resulting data were analyzed based on a 1:1 binding model from which kon and koff values were obtained and then Kd values were calculated.

The target of another experiment is T3, Gαi1/Gβγ (Homo sapiens, UniProt P63096).
T3 construct: expressed in transfected cells; host or cells: HEK293 cells
The experiment in a line: BRET2 based Gα Gβγ interaction assay in HEK293 cells (M2R, acetylcholine). As to conditions: pretreated 25 μM, 16 hours, 100 nM acetylcholine. The class given is cell-based.
Source text: as §1, §2

A further experiment concerns the target T4, adenylyl cyclase (Homo sapiens, UniProt O95622+Q08462).
T4 construct: C1 domain (residues 442-658, VC1) of human ADCY5; C2 domain (residues 871-1082, IIC2) of human ADCY2; made in house; host or cells: Escherichia coli BL21(DE3)
As to the kind of experiment: Forskolin-mediated, Gαs-independent adenylyl cyclase activation. The class given is biochemical.

T4 sequence (O95622 442-658): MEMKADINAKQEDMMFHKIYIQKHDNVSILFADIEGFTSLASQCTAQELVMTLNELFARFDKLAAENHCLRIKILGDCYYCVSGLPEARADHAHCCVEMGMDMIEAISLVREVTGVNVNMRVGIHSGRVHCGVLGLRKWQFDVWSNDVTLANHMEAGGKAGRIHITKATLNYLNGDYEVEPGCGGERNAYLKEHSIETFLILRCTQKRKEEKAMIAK
T4 sequence (Q08462 871-1082): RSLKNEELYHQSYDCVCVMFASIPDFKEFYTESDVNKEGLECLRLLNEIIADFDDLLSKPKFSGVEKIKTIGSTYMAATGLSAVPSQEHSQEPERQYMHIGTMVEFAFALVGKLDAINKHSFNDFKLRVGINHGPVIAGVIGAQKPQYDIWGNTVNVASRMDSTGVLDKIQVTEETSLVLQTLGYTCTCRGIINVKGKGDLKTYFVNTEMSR
T3 sequence (P63096 whole entry): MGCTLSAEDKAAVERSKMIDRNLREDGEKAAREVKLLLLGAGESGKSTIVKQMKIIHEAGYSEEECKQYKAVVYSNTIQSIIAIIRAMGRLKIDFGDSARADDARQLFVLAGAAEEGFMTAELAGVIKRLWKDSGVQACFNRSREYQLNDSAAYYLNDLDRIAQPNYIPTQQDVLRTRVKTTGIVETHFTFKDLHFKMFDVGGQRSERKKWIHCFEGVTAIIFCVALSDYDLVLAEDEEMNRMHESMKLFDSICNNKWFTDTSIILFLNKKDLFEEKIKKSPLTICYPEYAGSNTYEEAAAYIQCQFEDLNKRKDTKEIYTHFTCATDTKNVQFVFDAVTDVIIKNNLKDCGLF
T1 sequence (P63092 1-380 isoform P63092-2): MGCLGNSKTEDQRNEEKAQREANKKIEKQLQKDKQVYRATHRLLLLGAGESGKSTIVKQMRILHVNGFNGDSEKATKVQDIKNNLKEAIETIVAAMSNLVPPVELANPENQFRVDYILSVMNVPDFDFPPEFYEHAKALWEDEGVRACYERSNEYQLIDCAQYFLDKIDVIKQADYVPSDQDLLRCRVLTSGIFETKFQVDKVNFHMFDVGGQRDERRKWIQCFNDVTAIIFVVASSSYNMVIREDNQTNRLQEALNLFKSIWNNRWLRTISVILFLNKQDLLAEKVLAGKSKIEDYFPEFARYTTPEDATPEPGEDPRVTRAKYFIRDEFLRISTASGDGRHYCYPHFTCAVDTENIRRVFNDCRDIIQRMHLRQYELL

As to `CC[C@H](C)[C@@H]1NC(=O)[C@H](CC(C)C)NC(=O)[C@@H](Cc2ccc(O)cc2)NC(=O)CSC[C@@H](C(=O)NCC(N)=O)NC(=O)[C@@H]2CCCN2C(=O)[C@H](CC(C)C)NC(=O)[C@H](CC(N)=O)NC(=O)[C@H](CC(C)C)NC(=O)[C@H](C)NC(=O)[C@H](Cc2c[nH]c3ccccc23)NC(=O)[C@H](CCC(N)=O)NC(=O)[C@H](CCCNC(=N)N)NC(=O)[C@H](Cc2ccccc2)NC(=O)[C@H]([C@@H](C)O)NC1=O` [GD20-F10L] ({CH2CO}-[dY]LITFRQWALNLPCG-NH2; thioether N-14), the “selectivity for Gαs than Gαi in the FRET assay” value in experiment [1] stood at 100 fold. The “net BRET2 signal between Gαs and Gγ after isoproterenol” value at Gαs/Gβγ is “induced a greater net BRET2 signal”. On GDP-bound Gαs (GDP/Gαs), this compound came in with a Kd of 14.5 ± 0.4 nM, a koff of 0.00358 s⁻¹ and a kon of 247000 M⁻¹ s⁻¹. Further, the “net BRET2 signal change between Gαi and Gβγ after acetylcholine” value at Gαi1/Gβγ is reported as “did not induce a net BRET2 signal change”.

With `CC[C@H](C)[C@@H]1NC(=O)[C@H](C)NC(=O)[C@H](Cc2ccc(O)cc2)NC(=O)[C@H](C(C)C)NC(=O)[C@H](CO)NC(=O)[C@H](CCC(=O)O)NC(=O)[C@H](Cc2ccccc2)NC(=O)[C@@H](Cc2ccc(O)cc2)NC(=O)CSC[C@@H](C(=O)NCC(N)=O)NC(=O)[C@H](CC(C)C)NC(=O)[C@H]([C@@H](C)O)NC(=O)CNC(=O)[C@H](Cc2c[nH]c3ccccc23)NC1=O` [GN13] ({CH2CO}-[dY]FESVYAIWGTLCG-NH2; thioether N-13), the “binding to GDP-bound Gαs” value on GDP-bound Gαs (highest concentration tested) is reported as “no detectable binding”. Further, at adenylyl cyclase, the “inhibition of forskolin-mediated, Gαs-independent adenylyl cyclase activation” value is “did not inhibit”.
